Measured values from US4713486A, “Novel compounds” (Beecham Group p.l.c., priority 1982, dated 1987).

Key:
soybean lipoxygenase = biological target: T1, soybean lipoxygenase (Glycine max, UniProt P08170); assay: Lipoxygenase Screen: inhibition of soybean lipoxygenase activity; assay type: biochemical; details: 25° C., pH 9.0, 1000 I.U. soybean lipoxygenase, 0.017 mM arachidonic acid, 5 min preincubation; range in parentheses not explained; Example 9 as N-methylglucamine salt
T1 sequence (P08170 1-839): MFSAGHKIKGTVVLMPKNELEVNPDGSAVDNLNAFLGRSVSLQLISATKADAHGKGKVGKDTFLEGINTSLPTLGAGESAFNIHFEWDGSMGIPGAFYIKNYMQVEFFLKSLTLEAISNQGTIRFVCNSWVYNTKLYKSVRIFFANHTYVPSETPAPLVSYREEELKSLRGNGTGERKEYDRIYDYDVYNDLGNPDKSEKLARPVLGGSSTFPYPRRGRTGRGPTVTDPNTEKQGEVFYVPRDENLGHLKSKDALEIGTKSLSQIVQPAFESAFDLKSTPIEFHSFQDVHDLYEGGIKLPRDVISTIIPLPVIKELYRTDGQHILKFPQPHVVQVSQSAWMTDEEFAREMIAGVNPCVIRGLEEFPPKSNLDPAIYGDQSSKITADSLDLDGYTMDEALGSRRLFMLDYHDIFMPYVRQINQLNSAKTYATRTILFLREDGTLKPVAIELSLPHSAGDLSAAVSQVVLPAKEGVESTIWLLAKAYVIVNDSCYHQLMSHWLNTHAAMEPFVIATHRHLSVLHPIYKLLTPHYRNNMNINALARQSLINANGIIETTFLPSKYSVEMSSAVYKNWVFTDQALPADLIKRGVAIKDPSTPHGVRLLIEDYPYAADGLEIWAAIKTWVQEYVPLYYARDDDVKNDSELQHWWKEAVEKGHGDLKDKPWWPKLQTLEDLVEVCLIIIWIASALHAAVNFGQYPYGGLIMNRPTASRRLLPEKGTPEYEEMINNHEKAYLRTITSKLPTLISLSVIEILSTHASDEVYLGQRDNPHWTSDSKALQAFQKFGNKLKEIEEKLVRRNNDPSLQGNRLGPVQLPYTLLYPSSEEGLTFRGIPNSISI
Protocol: Inhibition of lipoxygenase activity was measured at 25° C. in a buffered incubation system (0.2M sodium borate, pH 9.0) comprising 1000 I.U. soybean lipoxygenase, 0.017 mM arachidonic acid, and compound (0-0.050 mM, dissolved in absolute ethanol:0.9% w/v saline, 30:70 v/v) in a total volume of 2.5 ml. Enzyme and compound were preincubated together at 25° C. for 5 minutes prior to initiation of the lipoxygenase reaction by the addition of the arachidonic acid. Lipoxygenase activity was measured as the rate of the initial increase in absorbance at 235 nm due to the formation of peroxidised forms of arachidonic acid. Inhibitory activity was measured at at least three compound concentrations and the 50% inhibitory concentration determined from the plot of % inhibition versus compound concentration.

cyclo-oxygenase = biological target: T2, cyclo-oxygenase (Bos taurus, UniProt O62664); assay: Cyclo-oxygenase Screen: inhibition of cyclo-oxygenase in bovine seminal vesicle microsomes; assay type: biochemical; details: 50 μM compound, pH 8.0, 37° C., 5 min preincubation, 2 min reaction, 5-15 μM arachidonic acid, read-out: Cyclooxygenase Inhibition at 50 μM
T2 construct: lyophilised bovine seminal vesicle microsomes; from tissue; host or cells: bovine seminal vesicle microsomes
T2 sequence (O62664 25-600): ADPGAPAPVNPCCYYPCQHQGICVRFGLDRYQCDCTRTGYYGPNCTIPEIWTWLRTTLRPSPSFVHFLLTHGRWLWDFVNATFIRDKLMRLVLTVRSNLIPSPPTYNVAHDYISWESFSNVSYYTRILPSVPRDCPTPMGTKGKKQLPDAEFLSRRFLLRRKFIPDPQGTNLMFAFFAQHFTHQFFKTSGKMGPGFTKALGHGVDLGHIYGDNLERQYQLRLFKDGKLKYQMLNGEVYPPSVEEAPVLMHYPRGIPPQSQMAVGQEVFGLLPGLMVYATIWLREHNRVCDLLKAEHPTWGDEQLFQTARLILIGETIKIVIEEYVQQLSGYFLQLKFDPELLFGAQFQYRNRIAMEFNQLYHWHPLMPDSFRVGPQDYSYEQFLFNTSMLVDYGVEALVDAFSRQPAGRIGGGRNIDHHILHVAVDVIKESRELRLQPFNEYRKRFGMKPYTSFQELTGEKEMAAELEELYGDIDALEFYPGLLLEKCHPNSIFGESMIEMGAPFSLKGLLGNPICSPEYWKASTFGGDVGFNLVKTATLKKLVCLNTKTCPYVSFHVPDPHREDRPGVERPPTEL
Protocol: (2) Cyclo-oxygenase Screen
The inhibition of cyclo-oxygenase was measured in a buffered incubation (0.2M Tris-HCI, pH 8.0 containing 1 mM ethylene diaminetetraacetic acid) comprising 0.96 mg lyophilised bovine seminal vesicle microsomes, 5-15 μM arachidonic acid containing 0.2 μCi [1--^14 C] arachidonic acid, 2 mM glutathione, […], 1 μM haemoglobin and compound (0-0.05 mM in 5 μl dimethylsulphoxide or absolute ethanol) in a total volume of 2.0 ml. Compounds were preincubated with the incubation constitutents for 5 min at 37° C. before the reaction was started by the addition of the arachidonic acid. The reaction was continued at 37° C. for 2 min, then stopped by placing the incubations on ice and the addition of 1.2 ml 0.2M citric acid. Unmetabolised substrate and prostaglandin products were extracted in ethyl acetate (2×4 ml), the combined extracts washed with 0.8 ml water, and separated by thin-layer chromatography (Kieselgel GF254 plates in ethyl acetate:acetone:glacial acetate acid, 90:10:1, v/v). Recovery was 65-80%. The regions on the thin-layer chromatography plate that chromatographed with authentic arachidonic acid or prostaglandins E2 and F2 α (Rf 's 0.70. 0.28 and 0.16 respectively) were scraped and the radioactivity in each determined by liquid scintillation counting with a correction for quenching being made by the external standard-channels ratio method. Inhibition of cyclo-oxygenase activity was calculated from the decrease in prostaglandin formation. Each compound concentration was tested in triplicate and the 50% inhibitory concentration, if determined, was calculated by linear regression from the inhibitory data at, at least three different compound concentrations.

Structure (SMILES) | IC50 (soybean lipoxygenase) | inhibition at 50 µM (cyclo-oxygenase)
CCCCCCCCCCCC#Cc1ccc(/C=C/C(=O)OC)cc1 [Example 4, Methyl 4-(1-tridecynyl)cinnamate] | 142 µM | –
CCCCCCCCCCCC#Cc1ccc(/C=C/C(=O)O)cc1 [Example 9, 4-(1-Tridecynyl)cinnamic acid] | 272 µM | –
CCCCCCCCCCCC#Cc1ccccc1/C=C/C(=O)O [Example 12] | 85.7 µM | 86.5%
CCCCCCCCCCCC#Cc1cccc(/C=C/C(=O)O)c1 [Example 13] | – | 79.8%
CCCCCCCCCCC/C=C\c1ccc(/C=C/C(=O)OC)cc1 [Example 15, Methyl 4-[(Z)-1-tridecenyl]cinnamate] | 230 µM | –
CCCCCCCCCCC/C=C/c1ccc(/C=C/C(=O)O)cc1 [Example 24, 4-[(E)-1-Tridecenyl]cinnamic acid] | 30 µM | 52%
CCCCCCCCCCC/C=C\c1ccc(/C=C/C(=O)O)cc1 [Example 25] | 35.9 µM | 25.6%
CCCCCCCCC/C=C/c1ccc(/C=C/C(=O)O)cc1 [Example 26] | 52.3 µM | 52%
CCCCCCCCC/C=C\c1ccc(/C=C/C(=O)O)cc1 [Example 27] | 46.6 µM | 70.5%
CCCCCCCCCCCCC/C=C\c1ccc(/C=C/C(=O)O)cc1 [Example 29] | – | 66.5%
CCCCCCCCCCC/C=C\c1ccccc1/C=C/C(=O)O [Example 30] | 23.2 µM | 26%
CCCCCCCCCCC/C=C\c1cccc(/C=C/C(=O)O)c1 [Example 31] | – | 91%
CCCCCCCCCCC/C=C\c1ccc(CCC(=O)O)cc1 [Example 40, 3-{4-[(Z)-1-Tridecenyl]phenyl}propanoic acid] | – | 67%
CCCCCCCCCCC/C=C/c1ccc(CCC(=O)O)cc1 [Example 41, 3-{4-[(E)-1-Tridecenyl]phenyl}propanoic acid] | – | 40%
CCCCCCCCCCCC#Cc1ccccc1CCC(=O)O [Example 42, 3[2-(1-Tridecynyl)phenyl]propanoic acid] | 20 µM | 80%
CCCCCCCCCCC/C=C\c1ccccc1CCC(=O)O [Example 43, 3-{2-[(Z)-1-Tridecenyl]phenyl}propanoic acid] | 18.4 µM | 62.7%
CCCCCCCCCCC/C=C\c1ccccc1OCCCC(=O)OCC [Example 55, (Z) Ethyl 4-[2-(1-tridecenyl)phenoxy)-butanoate] | 55.4 µM | –
CCCCCCCCCCC/C=C\c1ccccc1OCC(=O)O [Example 60, (Z) 2-[2-(1-tridecenyl)-phenoxy]ethanoic acid] | – | 92.4%
CCCCCCCCCCC/C=C\c1ccccc1OCCC(=O)O [Example 61, (Z) 3-[2-(1-tridecenyl)phenoxy]-propanoic acid] | – | 78.9%
CCCCCCCCCCC/C=C\c1ccccc1OCCCC(=O)O [Example 62, (Z) 4-[2-(1-tridecenyl)phenoxy]-butanoic acid] | 4.2 µM | 67%
CCCCCCCC/C=C\c1ccccc1OCCCC(=O)O [Example 82] | – | 72%
CCCCCCCCCCC/C=C/c1ccccc1OCCCC(=O)O [Example 85] | – | 64%
CCCCCCCCCCC/C=C/c1ccccc1OCCCCC(=O)O [Example 87] | – | 67%
CCCCCCCCCCC/C=C\c1ccc(OCC(=O)O)cc1 [Example 89] | 124 µM | 51%
CCCCCCCCCC/C=C\c1ccc(OCCC(=O)O)cc1 [Example 90] | 75.3 µM | –
CCCCCCCCC/C=C\c1ccc(OCCCC(=O)O)cc1 [Example 92] | 42.8 µM | –
